Assays:
in vitro = details: African green monkey
[1] = test system: SARS-associated coronavirus; type: cell-based; details: added to the culture medium; results not shown
CRFK cells = details: cat
[2] = test system: FipV (Feline infectious peritonitis Virus); assay: microbe, parasite or virus in culture; type: cell-based
[3] = test system: TGEV (Transmissible gastroenteritis Virus); assay: microbe, parasite or virus in culture; type: cell-based
nitrous oxide synthase = type: cell-based
[4] = test system: SARS-associated coronavirus; type: cell-based; details: Vero cells, 72 hours after infection
FipV = type: cell-based, Feline infectious peritonitis Virus; details: 500 μM
Vero cells = details: African green monkey
TGEV = type: cell-based, Transmissible gastroenteritis Virus; details: 500 μM

## O=c1cnn([C@@H]2O[C@H](CO)[C@@H](O)[C@H]2O)c(=O)[nH]1 [Compound 6-azauridine, 6-azauridine]
In vitro
  CC50: 104 µg/mL

## COC(=O)[C@@]1(C)CC[C@]2(C)CC[C@]3(C)C(=CC(=O)C4[C@@]5(C)CCC(OC6OC(C(=O)NN)C(O)C(O)C6OC6OC(C(=O)NN)C(O)C(O)C6O)C(C)(C)C5CC[C@]43C)C2C1 (stereo partly drawn) [Compound 7]
In vitro
  CC50: 66 µM

## COC(=O)[C@@]1(C)CC[C@]2(C)CC[C@]3(C)C(=CC(=O)C4[C@@]5(C)CCC(OC6OC(CO)C(O)C(O)C6OC6OC(CO)C(O)C(O)C6O)C(C)(C)C5CC[C@]43C)C2C1 (stereo partly drawn) [Compound 8]
In vitro
  CC50: 44 µM

## NCCN(CCN)/[N+]([O-])=N/O [DETANONOate]
[1]
  SARS-associated coronavirus replication: replication was inhibited

## CC1(C)C(OC2OC(C(=O)O)C(O)C(O)C2OC2OC(C(=O)O)C(O)C(O)C2O)CC[C@@]2(C)C1CC[C@]1(C)C2C(=O)C=C2C3C[C@@](C)(C(=O)O)CC[C@]3(C)CC[C@]21C.N (stereo partly drawn) [Glycyrrhizin Monoammonium Salt]
CRFK cells
  Tox. CRFK cells: >1 mM
[2]
  inhibition of CPE, FipV: Partial inhibition
[2]; Alphacoronavirus 1, CRFK, 48 h, read-out: EC50, FipV
  EC50: < 500 µM
[3]
  inhibition of CPE, TGEV: Partial inhibition
[3]; Alphacoronavirus 1, CRFK, 48 h, read-out: EC50, TGEV
  EC50: < 500 µM
In vitro
  CC50: 625 µM

## CC1(C)C(OC2OC(C(=O)O)C(O)C(O)C2OC2OC(C(=O)O)C(O)C(O)C2O)CC[C@]2(C)[C@H]3C(=O)C=C4[C@@H]5C[C@@](C)(C(=O)O)CC[C@]5(C)CC[C@@]4(C)[C@]3(C)CC[C@@H]12 (stereo partly drawn) [Glycyrrhizin, (3-beta,20-beta)-20-Carboxy-11-oxo-30-norolean-12-en-3-yl 2-O-beta-D-glucopyranuronosyl-alpha-D-glucopyranosiduronic acid]
Nitrous oxide synthase
  induction of nitrous oxide synthase: induced nitrous oxide synthase
[4]; 1000 mg/L
  expression of viral antigens: much lower
[4]; 4000 mg/L
  replication of the virus: completely blocked replication of the virus
FipV
  virus replication, FipV: significantly reduced
In vitro
  CC50: > 20000 µg/mL
  cytotoxicity: 20 to 30%
Vero cells
  CC50: >20,000 mg/L
TGEV
  virus replication, TGEV: significantly reduced

## COc1c(C)c2c(c(O)c1C/C=C(\C)CCC(=O)O)C(=O)OC2 [Mycophenolic acid]
In vitro
  CC50: > 50 µg/mL

## NC(=O)c1[nH]nc([C@@H]2O[C@H](CO)[C@@H](O)[C@H]2O)c1O [Pyrazofurin]
In vitro
  CC50: 52 µg/mL

## NC(=O)c1ncn([C@@H]2O[C@H](CO)[C@@H](O)[C@H]2O)n1 [Ribavirin]
In vitro
  CC50: > 1000 µg/mL

Reference: patent US20070099855A1 (priority 2003, published 2007)
